Source: patent publication US8343536B2, “Biofilm-inhibiting medical products” (Cook Biotech Incorporated, priority 2007, dated 2013)

Key:
Assay type in all cases: cell-based
E. coli (ATCC #25922) = experiment: Zone-of-inhibition measured by image analysis, coated SIS discs (Example 2); settings: 10 μg/cm^2 on SIS disc, 24 hours, n=3
Method: (§1) BisEDT (Molar ratio 1:1.5), BisBAL (1:1.5), and BisERY (1:1.5) (50 mg each) were obtained from Microbion, Inc. Small intestinal submucosa (SIS) was obtained and processed into 4-layer lyophilized sheets as described in Example 1. The sheets were subsequently cut into 15 mm discs (˜1.76 cm^2) using a disc punch. Bismuth thiols were resuspended in dimethyl sulfoxide (DMSO) and diluted to 0.35 μg/μl for coating. Discs were coated with the bismuth thiol solutions 50 μl of the appropriate solution per disc for a final concentration 10 μg/cm^2 (0.35 μg/μl*50 μl=17.5 μg/1.76 cm^2=10 μg/cm^2). The discs were subsequently placed in a lyophilizer overnight to remove the DMSO solvent. Control discs were prepared using 50 μl of DMSO without a bismuth thiol preparation. 3 bacteria were used for this experiment: S. aureus (ATCC #25983), P. aeruginosa (ATCC #27853), and E. coli (ATCC #25922). Bacteria was grown in Tryptic Soy Broth for 16-24 hours before placing a lawn on Tryptic Soy Agar in 100 mm Petri dishes.
(§2) Thirty samples were tested in total (3 bismuth thiol preparations @ n=3→9+1 control=10×3 bacteria=30). A lawn of one of the three bacteria investigated was swabbed onto the Tryptic Soy Agar. The bismuth thiol coated disc was rehydrated for ˜5 minutes in sterile saline and placed approximately in the center of the plate. Plates were incubated inverted for 24 hours at which time pictures were taken with a digital camera. Zones-of-inhibition were measured using image analysis software (Spot RT) by determining the distance of bacterial growth inhibition from the disc edge.

S. aureus (ATCC #25983) [1] = experiment: as above; settings: 10 μg/cm^2 on SIS disc, 24 hours, n=3
Method: as §1, §2

S. aureus (ATCC #25983) [2] = experiment: Zone-of-inhibition after various rehydration times of coated SIS discs (Example 3)
Method: BisEDT (Molar ratio 1:1.5) and BisBAL (1:1.5) (50 mg each) were obtained from Microbion, Inc. Small intestinal submucosa (SIS) was obtained and processed into 4-layer lyophilized sheets as described in Example 1. The sheets were subsequently cut into 15 mm discs (˜1.76 cm^2) using a disc punch. Bismuth thiols were resuspended in dimethyl sulfoxide (DMSO) and diluted to appropriate concentrations for coating. Discs were coated with the bismuth thiol solutions at a final concentration of 0.35 μg/μl using 50 μl of the solution per disc for a final concentration of 10 μg/cm^2. The discs were subsequently placed in a lyophilizer overnight to remove the DMSO solvent. S. aureus (ATCC #25983) was used as the bacteria for this experiment. Bacteria was grown in Tryptic Soy Broth for 16-24 hours before placing a lawn on Tryptic Soy Agar in 100 mm Petri dishes.
Thirty six samples were tested in total (2 BT*n=3→6*6 rehydration times→36). A lawn of S. aureus was swabbed onto the Tryptic Soy Agar. For the 0 rehydration time point, the bismuth thiol coated disc was placed approximately in the center of the plate and rehydrated with ˜50 μl of sterile saline. Other rehydration times were varied at 5, 10, 20, 30, or 60 minutes. For this, the samples were placed in sterile saline and a timer set for each time. At the appropriate time, samples were removed from the saline and placed approximately in the center of the plate. Plates were incubated inverted for 24 hours at which time pictures were taken with a digital camera. Zones-of-inhibition were compared visually between groups.

A. niger(ATCC #16404) = experiment: Anti-fungal zone-of-inhibition / growth inhibition, coated SIS discs (Example 5); settings: 100 μg/cm^2 on SIS disc
Method: (§3) BisEDT was obtained from Microbion, Inc. as previously described. Small intestinal submucosa (SIS) was obtained and processed into 4-layer lyophilized sheets as described in Example 1. The sheets were subsequently cut into 15 mm discs (˜1.76 cm^2) using a disc punch. BisEDT was resuspended in dimethyl sulfoxide (DMSO) and diluted to appropriate concentrations for coating. Discs were coated with the BisEDT solution at a final concentration of 3.5 μg/μl using 50 μl of the solution per disc for a final concentration of 100 μg/cm^2. The discs were subsequently placed in a lyophilizer overnight to remove the DMSO solvent. A total of 6 coated discs were made—3 each for the two microorganisms investigated. These were compared against 3 uncoated controls discs cut from the same lot of SIS for each microorganism. C. albicans (ATCC #10231) and A. niger(ATCC #16404) were plated on Rose Bengal Chloramphenicol (RBC) in Petri dishes.
(§4) The experiment consisted of a total of […] (3 BisEDT 100 μg/cm^2 coated, 3 uncoated controls) for each fungus. A lawn of either C. albicans or A. niger was swabbed onto the RBC plates. Each disc was rehydrated in sterile saline for ˜5 minutes then placed approximately in the center of the plate. Plates were incubated inverted for ˜48 hours for C. albicans or 5 and 8 days for A. niger at which time pictures were taken with a digital camera. Zones-of-inhibition or growth inhibition was compared visually between groups.

[3] = tested on: C. albicans (ATCC #10231); experiment: as above; settings: 100 μg/cm^2 on SIS disc, ~48 hours
Method: as §3, §4

bismuth-1,2-ethanedithiol [BisEDT]
Zone-of-inhibition, distance of bacterial growth inhibition from the disc edge (E. coli (ATCC #25922)): 1.28 | Zone-of-inhibition, distance of bacterial growth inhibition from the disc edge (S. aureus (ATCC #25983) [1]): 6.83 | Effect of rehydration time on zone-of-inhibition, visual comparison (S. aureus (ATCC #25983) [2]; 10 μg/cm^2, rehydration 0-60 minutes in sterile saline): no visual differences between the rehydration time points | Zone-of-inhibition, visual (S. aureus (ATCC #25983) [2]; 10 μg/cm^2 on SIS disc, rehydration 0, 5, 10, 20, 30 or 60 minutes): significant effectiveness in creating a zone-of-inhibition | Mold growth on coated disc (A. niger(ATCC #16404); 5 days): able to grow up to the disc edge but not on the BisEDT coated disc | Mold growth on coated disc (A. niger(ATCC #16404); eight day time point): still unable to grow on the BisEDT coated discs | Zone-of-inhibition from the disc edge [3]: ~1 mm
